# Measurements as given in US20100144733A1, “Compounds, compositions and methods comprising heteroaromatic derivatives” (Institute for OneWorld Health, priority 2008, published 2010).
# How the values were obtained:
# CHO-CFTR cell line = target: T1, CHO-CFTR cell line (Homo sapiens, UniProt P13569); assay: CHO-CFTR assay (FLIPR assay, same conditions as the T84 assay); assay type: cell-based; settings: imidazole and triazole-containing compounds
# T1 construct: expressed in transfected cells; host or cells: CHO (CHO-CFTR cell line)
# T1 sequence (P13569 whole entry): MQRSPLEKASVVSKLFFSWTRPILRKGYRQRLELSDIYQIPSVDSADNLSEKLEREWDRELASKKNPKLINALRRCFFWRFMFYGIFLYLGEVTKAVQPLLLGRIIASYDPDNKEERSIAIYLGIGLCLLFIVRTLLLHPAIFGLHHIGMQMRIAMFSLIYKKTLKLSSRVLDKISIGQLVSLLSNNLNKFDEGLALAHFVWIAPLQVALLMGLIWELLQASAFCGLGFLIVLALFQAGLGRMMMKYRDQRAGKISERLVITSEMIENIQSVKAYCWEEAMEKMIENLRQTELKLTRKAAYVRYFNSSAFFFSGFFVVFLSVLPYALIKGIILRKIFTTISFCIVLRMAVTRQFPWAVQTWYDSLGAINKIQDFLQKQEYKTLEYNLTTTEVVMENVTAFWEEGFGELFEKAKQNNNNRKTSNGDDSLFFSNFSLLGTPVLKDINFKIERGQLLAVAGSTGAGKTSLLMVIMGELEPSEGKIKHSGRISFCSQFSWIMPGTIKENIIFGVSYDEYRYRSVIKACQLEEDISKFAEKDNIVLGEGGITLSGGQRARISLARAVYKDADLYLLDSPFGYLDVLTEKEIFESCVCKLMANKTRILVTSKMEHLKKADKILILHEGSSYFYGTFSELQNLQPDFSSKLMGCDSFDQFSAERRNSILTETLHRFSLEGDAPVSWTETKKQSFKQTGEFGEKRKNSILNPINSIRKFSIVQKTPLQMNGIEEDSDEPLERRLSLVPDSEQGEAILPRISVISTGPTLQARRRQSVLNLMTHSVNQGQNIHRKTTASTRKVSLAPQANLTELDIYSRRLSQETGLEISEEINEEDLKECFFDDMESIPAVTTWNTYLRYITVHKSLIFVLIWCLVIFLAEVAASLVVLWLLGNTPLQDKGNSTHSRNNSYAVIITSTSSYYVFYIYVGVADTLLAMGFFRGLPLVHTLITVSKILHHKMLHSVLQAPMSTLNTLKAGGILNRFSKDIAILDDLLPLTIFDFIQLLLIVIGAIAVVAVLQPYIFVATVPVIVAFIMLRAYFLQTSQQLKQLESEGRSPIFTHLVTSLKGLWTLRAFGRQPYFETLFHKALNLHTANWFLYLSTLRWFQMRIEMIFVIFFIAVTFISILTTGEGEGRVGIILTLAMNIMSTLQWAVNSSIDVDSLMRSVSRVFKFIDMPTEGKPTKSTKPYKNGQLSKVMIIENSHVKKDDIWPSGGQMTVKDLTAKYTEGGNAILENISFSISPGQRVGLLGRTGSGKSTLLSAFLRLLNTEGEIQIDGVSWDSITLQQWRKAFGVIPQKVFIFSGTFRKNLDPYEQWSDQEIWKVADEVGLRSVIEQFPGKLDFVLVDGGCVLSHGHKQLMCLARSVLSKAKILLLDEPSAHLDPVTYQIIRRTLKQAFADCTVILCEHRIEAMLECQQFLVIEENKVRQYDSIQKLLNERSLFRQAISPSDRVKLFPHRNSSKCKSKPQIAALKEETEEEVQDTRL
# CFTR = target: T2, CFTR (Homo sapiens, UniProt P13569); assay: T84 assay (FLIPR membrane potential dye, forskolin/IBMX-stimulated CFTR channel activity); assay type: cell-based; settings: imidazole and triazole-containing compounds (Tables 13, 14, 14′), read-out: IC50 (μM) (T84 assay)
# T2 construct: endogenous in cells; host or cells: T84 human colonic cells (ECACC)
# T2 sequence (P13569 whole entry): as above
# Outline: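 Fluorescence from a membrane potential dye in T84 monolayers (HBSS with 10 mM Hepes) is followed each second for 150 s. Cells are exposed to test compound during the 45 min dye loading, then challenged with forskolin (10 μM) and IBMX (100 μM) to open CFTR. Inhibitors suppress the depolarization-driven fluorescence increase.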
SMILES,IC50 (CHO-CFTR cell line),IC50 (CFTR)
"CN(Cc1ccc(C(C)(C)C)cc1)C(=O)c1ncn(-c2cc(Cl)c(O)c(Cl)c2)n1 [1i, N-(4-tert-butylbenzyl)-1-(3,5-dichloro-4-hydroxyphenyl)-N-methyl-1H-1,2,4-triazole-3-carboxamide]",5.38 µM,4.26 µM
"O=C(NC(c1ccccc1)c1ccccc1)c1ncn(-c2cc(Cl)c(O)c(Cl)c2)n1 [2i, N-benzhydryl-1-(3,5-dichloro-4-hydroxyphenyl)-1H-1,2,4-triazole-3-carboxamide]",6.45 µM,4.88 µM
"O=C(NCc1cccc(OC(F)(F)F)c1)c1ncn(-c2cc(Cl)c(O)c(Cl)c2)n1 [3i, 1-(3,5-dichloro-4-hydroxyphenyl)-N-(3-(trifluoromethoxy)benzyl)-1H-1,2,4-triazole-3-carboxamide]",3.37 µM,7.14 µM
"O=C(c1ncn(-c2cc(Cl)c(O)c(Cl)c2)n1)N1CCN(c2cccc(C(F)(F)F)c2)CC1 [4i, (1-(3,5-dichloro-4-hydroxyphenyl)-1H-1,2,4-triazol-3-yl)(4(3-(trifluoromethyl)phenyl)piperazin-1-yl)methanone]",14.3 µM,8.15 µM
"O=C(c1cn(-c2cc(Br)c(O)c(Br)c2)cn1)N1CCC(Cc2ccccc2)CC1 [19i, (4-benzylpiperidin-1-yl)(1-(3,5-dibromo-4-hydroxyphenyl)-1H-imidazol-4-yl)methanone]",7.5 µM,17.4 µM
"O=C(NCc1cccc(OC(F)(F)F)c1)c1cn(-c2cc(Br)c(O)c(Br)c2)cn1 [20i, 1-(3,5-Dibromo-4-hydroxyphenyl)-N-(3-(trifluoromethoxy)benzyl)-1H-imidazole-4-carboxamide]",2.31 µM,17.6 µM
"O=C(NCc1ccc(F)c(Cl)c1)c1ncn(-c2cc(Cl)c(O)c(Cl)c2)n1 [23i, N-(3-chloro-4-fluorobenzyl)-1-(3,5-dichloro-4-hydroxyphenyl)-1H-1,2,4-triazole-3-carboxamide]",12.5 µM,7.39 µM
"O=C(NCc1cc(F)cc(C(F)(F)F)c1)c1ncn(-c2cc(Cl)c(O)c(Cl)c2)n1 [24i, 1-(3,5-dichloro-4-hydroxyphenyl)-N-(3-fluoro-5-(trifluoromethyl)benzyl)-1H-1,2,4-triazole-3-carboxamide]",15.2 µM,4.93 µM
"O=C(NCCC(c1ccccc1)c1ccccc1)c1ncn(-c2cc(Cl)c(O)c(Cl)c2)n1 [31i, 1-(3,5-dichloro-4-hydroxyphenyl)-N-(3,3-diphenylpropyl)-1H-1,2,4-triazole-3-carboxamide]",12.9 µM,1.67 µM
"O=C(NC(c1ccccc1)c1ccc(Cl)cc1)c1ncn(-c2cc(Cl)c(O)c(Cl)c2)n1 (stereo not shown) [33i, N-((4-chlorophenyl)(phenyl)methyl)-1-(3,5-dichloro-4-hydroxyphenyl)-1H-1,2,4-triazole-3-carboxamide]",4.8 µM,3.66 µM
"CC(C)(C)c1ccc(CNC(=O)c2ncn(-c3cc(Cl)c(O)c(Cl)c3)n2)cc1 [34i, N-(4-tert-butylbenzyl)-1-(3,5-dichloro-4-hydroxyphenyl)-1H-1,2,4-triazole-3-carboxamide]",4.72 µM,1.18 µM
"O=C(NCc1cc(Cl)cc(Cl)c1)c1ncn(-c2cc(Cl)c(O)c(Cl)c2)n1 [36i, 1-(3,5-dichloro-4-hydroxyphenyl)-N-(3,5-dichlorobenzyl)-1H-1,2,4-triazole-3-carboxamide]",13.7 µM,3.7 µM
"O=C(NCc1ccc(Cl)c(Cl)c1)c1ncn(-c2cc(Cl)c(O)c(Cl)c2)n1 [37i, 1-(3,5-dichloro-4-hydroxyphenyl)-N-(3,4-dichlorobenzyl)-1H-1,2,4-triazole-3-carboxamide]",5.71 µM,2.67 µM
"O=C(NCc1cc(C(F)(F)F)ccc1F)c1ncn(-c2cc(Cl)c(O)c(Cl)c2)n1 [40i, 1-(3,5-dichloro-4-hydroxyphenyl)-N-(2-fluoro-5-(trifluoromethyl)benzyl)-1H-1,2,4-triazole-3-carboxamide]",28.6 µM,2.86 µM
"O=C(NCC(c1ccccc1)c1ccccc1)c1ncn(-c2cc(Cl)c(O)c(Cl)c2)n1 [44i, 1-(3,5-dichloro-4-hydroxyphenyl)-N-(2,2-diphenylethyl)-1H-1,2,4-triazole-3-carboxamide]",23.2 µM,2.8 µM
"O=C(NCc1ccc(Oc2ccccc2)cc1)c1ncn(-c2cc(Cl)c(O)c(Cl)c2)n1 [49i, 1-(3,5-dichloro-4-hydroxyphenyl)-N-(4-phenoxybenzyl)-1H-1,2,4-triazole-3-carboxamide]",0.45 µM,1.57 µM
"CC(C)(C)C(=O)CN(Cc1ccc(C(C)(C)C)cc1)C(=O)c1ncn(-c2cc(Cl)c(O)c(Cl)c2)n1 [50i, N-(4-tert-butylbenzyl)-1-(3,5-dichloro-4-hydroxyphenyl)-N-(3,3-dimethyl-2-oxobutyl)-1H-1,2,4-triazole-3-carboxamide]",18.5 µM,1.16 µM
"C=CCN(Cc1ccc(C(C)(C)C)cc1)C(=O)c1ncn(-c2cc(Cl)c(O)c(Cl)c2)n1 [51i, N-allyl-N-(4-tert-butylbenzyl)-1-(3,5-dichloro-4-hydroxyphenyl)-1H-1,2,4-triazole-3-carboxamide]",5.13 µM,0.63 µM
"Oc1c(Cl)cc(-n2cnc(C(O)(c3cc(F)cc(F)c3)c3cc(F)cc(F)c3)n2)cc1Cl [52i, 4-(3-(Bis(3,5-difluorophenyl)(hydroxy)methyl)-1H-1,2,4-triazol-1-yl)-2,6-dichlorophenol]",7.8 µM,13.6 µM
"Oc1c(Cl)cc(-n2cnc(C(O)(c3cccc(Cl)c3)c3cccc(Cl)c3)n2)cc1Cl [53i, 4-(3-(bis(3-chlorophenyl)(hydroxy)methyl)-1H-1,2,4-triazol-1-yl)-2,6-dichlorophenol]",4.27 µM,13 µM
"Oc1c(Cl)cc(-n2cnc(C(O)(c3cccc(F)c3)c3cccc(F)c3)n2)cc1Cl [54i, 4-(3-(bis(3-fluorophenyl)(hydroxy)methyl)-1H-1,2,4-triazol-1-yl)-2,6-dichlorophenol]",22.7 µM,22.9 µM
"Oc1c(Cl)cc(-n2cnc(C(O)(c3ccc(F)c(F)c3)c3ccc(F)c(F)c3)n2)cc1Cl [55i, 4-(3-(bis(3,4-difluorophenyl)(hydroxy)methyl)-1H-1,2,4-triazol-1-yl)-2,6-dichlorophenol]",6.94 µM,17.2 µM
"Oc1c(Cl)cc(-n2cnc(C(O)(Cc3ccc(F)cc3)Cc3ccc(F)cc3)n2)cc1Cl [56i, 4-(3-(1,3-bis(4-fluorophenyl)-2-hydroxypropan-2-yl)-1H-1,2,4-triazol-1-yl)-2,6-dichlorophenol]",25.5 µM,20.4 µM
"Oc1c(Cl)cc(-n2cnc(C(O)(c3cc(F)cc(Cl)c3)c3cc(F)cc(Cl)c3)n2)cc1Cl [57i, 4-(3-(bis(3-chloro-5-fluorophenyl)(hydroxy)methyl)-1H-1,2,4-triazol-1-yl)-2,6-dichlorophenol]",3.88 µM,14.7 µM
"CC(C)(C)c1ccc(C(O)(c2ccc(C(C)(C)C)cc2)c2ncn(-c3cc(Cl)c(O)c(Cl)c3)n2)cc1 [58i, 4-(3-(bis(4-tert-butylphenyl)(hydroxy)methyl)-1H-1,2,4-triazol-1-yl)-2,6-dichlorophenol]",17 µM,11.3 µM
"Oc1c(Cl)cc(-n2cnc(C(O)(Cc3ccccc3F)Cc3ccccc3F)n2)cc1Cl [59i, 4-(3-(1,3-bis(2-fluorophenyl)-2-hydroxypropan-2-yl)-1H-1,2,4-triazol-1-yl)-2,6-dichlorophenol]",5.45 µM,21.1 µM
